Source: the OPERA property sets (Mansouri et al. 2018)

conditions: not given

Compared with `O=C(O)CNC(=O)c1ccccc1`, `NNC(=O)c1cccc(Br)c1` is lower in melting point: 192 °C for the first, 158 °C for the second.

Going from `CCCCCCCCCCCCCCCCCCO` to `CCCCCCCCCCCCCC(=O)Cl`, the melting point falls from 59.5 °C to -1 °C.

Going from `c1ccc2sccc2c1` to `O=C1Cc2cccc3cccc1c23`, the melting point rises from 32 °C to 121 °C.

First: CC(C)(C)c1cccc([N+](=O)[O-])c1
Second: CCc1cccc(C)c1N
The melting point of the first is higher: 2 °C for the first, -33 °C for the second.

Compared with `C[C@H]1C[C@H]2[C@@H]3CCC4=CC(=O)C=C[C@]4(C)[C@@]3(F)[C@@H](O)C[C@]2(C)[C@@]1(O)C(=O)CCl`, `CO[C@H]1[C@H](O)[C@H](O[C@H]2CC[C@@]3(C)[C@H](CC[C@@H]4[C@@H]3CC[C@]3(C)[C@@H](C5=CC(=O)OC5)CC[C@]43O)C2)O[C@@H](C)[C@@H]1O` is higher in melting point: 196 °C for the first, 221 °C for the second.

Going from `C1CCC2CCCCC2C1` (stereo not given) to `ON=C1CCCCC1=NO`, the melting point rises from -38.7 °C to 192 °C.

Going from `O=[N+]([O-])c1cc(C(F)(F)F)cc([N+](=O)[O-])c1Cl` to `C=C(C)C(=O)Nc1ccc(Cl)c(Cl)c1`, the melting point rises from 57 °C to 128 °C.

Going from `CCCI` to `CCI`, the melting point falls from -101 °C to -111 °C.

Compared with `NC(Cc1n[nH]c2ccccc12)C(=O)O` (stereo not given), `COc1ccccc1O` is lower in melting point: 240 °C for the first, 32 °C for the second.

Compared with `CC(=O)OCC1=C(C(=O)O)N2C(=O)[C@@H](NC(=O)Cc3cccs3)[C@H]2SC1`, `CCC(=O)c1ccco1` is lower in melting point: 160 °C for the first, 28 °C for the second.

Going from `CSC(C)C` to `Cc1csc(C)c1C`, the melting point rises from -102 °C to -26.2 °C.

Going from `CCCCCCCCOC(=O)CCCCCCC` to `CCCCCC=O`, the melting point falls from -18.1 °C to -56 °C.

Going from `Clc1cc(Cl)nc(-c2ccccc2)n1` to `Brc1ccc2oc3ccccc3c2c1`, the melting point rises from 96.9 °C to 110 °C.

First: CC#CCCCCC
Second: CCCCc1ccc(O)cc1
The melting point of the first is lower: -61.6 °C for the first, 22 °C for the second.

Going from `Cc1ccc(Br)cc1N` to `CC=Cc1ccc(O)c(OC)c1`, the melting point falls from 33 °C to 11.8 °C.

Compared with `OC(c1ccc(Cl)cc1)(c1ccc(Cl)cc1)C(Cl)(Cl)Cl`, `O=C(O)C=Cc1ccc(Cl)cc1` is higher in melting point: 77.5 °C for the first, 249 °C for the second.

Going from `O=C=C=C=O` to `CC#CC(=O)O`, the melting point rises from -107 °C to 78 °C.

Compared with `O=C(O)COc1c(Cl)ccc(Cl)c1Cl`, `C=CCC1(c2ccccc2)C(=O)NC(=O)NC1=O` is higher in melting point: 148 °C for the first, 156 °C for the second.

Going from `CC1=CCC(C(=O)O)C1(C)C` (stereo not given) to `Cn1c(=O)c2[nH]cnc2n(C)c1=O`, the melting point rises from 40.5 °C to 273 °C.

Work on `O=C1c2cc3ccccc3cc2-c2ccc3ccccc3c21` yielded a melting point of 214 °C.

In the case of `O=C(O)CNC(=O)c1ccccc1`, the ready biodegradability is reported as “readily biodegradable”.
With `CCCCCCCCCCCCCCCCCCO` the ready biodegradability was “readily biodegradable”.
With `C1CCC2CCCCC2C1` (stereo not given) the ready biodegradability was “not readily biodegradable”.
With `CC1(C)C2CCC1(C)C(O)C2` (stereo not given) the ready biodegradability was “readily biodegradable”.
For `OC(c1ccc(Cl)cc1)(c1ccc(Cl)cc1)C(Cl)(Cl)Cl`, the ready biodegradability was “not readily biodegradable”.
With `COc1ccccc1O` the ready biodegradability was “readily biodegradable”.
For `CCCCCC=O`, the ready biodegradability was “readily biodegradable”.
With `CCCCC(CC)CN1C(=O)C2C(C1=O)C1(C(C)C)C=CC2(C)CC1` (stereo not given) the ready biodegradability was “not readily biodegradable”.

First: CCCCCCCCCCCCCCCCCCO
Second: CCCCCC=O
The log10 Koa of the first is higher: 10.9 for the first, 4.41 for the second.

Molecule `CCI` has a log10 Koa of 2.59.

First: CCCCCCCCCCCCCCCCCCO
Second: CCCCCC=O
The log10 vapour pressure (mmHg) of the first is lower: -5.57 for the first, 1.05 for the second.

First: c1ccc2sccc2c1
Second: COc1ccccc1O
The log10 vapour pressure (mmHg) of the first is higher: -0.624 for the first, -0.987 for the second.

Compared with `C1CCC2CCCCC2C1` (stereo not given), `CCCI` is higher in log10 vapour pressure (mmHg): 0.114 for the first, 1.63 for the second.

Compared with `CSC(C)C`, `CC#CCCCCC` is lower in log10 vapour pressure (mmHg): 1.9 for the first, 0.875 for the second.

Going from `Clc1cc(Cl)nc(-c2ccccc2)n1` to `OC(c1ccc(Cl)cc1)(c1ccc(Cl)cc1)C(Cl)(Cl)Cl`, the log10 vapour pressure (mmHg) falls from -4.05 to -6.4.

Compared with `CC=Cc1ccc(O)c(OC)c1`, `CCCCc1ccc(O)cc1` is lower in log10 vapour pressure (mmHg): -1.92 for the first, -2.65 for the second.

`CCI` gave a log10 vapour pressure (mmHg) of 2.13.

Going from `c1ccc2sccc2c1` to `COc1ccccc1O`, the boiling point falls from 221 °C to 205 °C.

Compared with `CCC(CC)c1ccccc1`, `CCNc1cccc(C)c1` is higher in boiling point: 188 °C for the first, 221 °C for the second.

First: CC(C)(C)c1cccc([N+](=O)[O-])c1
Second: CCc1cccc(C)c1N
The boiling point of the first is higher: 254 °C for the first, 231 °C for the second.

Compared with `C1CCC2CCCCC2C1` (stereo not given), `CC1CN(C)CCN1C` (stereo not given) is lower in boiling point: 180 °C for the first, 150 °C for the second.

Going from `CC(=O)CCCO` to `CCCC(=O)OCC(C)C`, the boiling point falls from 209 °C to 157 °C.

Going from `CCCI` to `CCI`, the boiling point falls from 103 °C to 72.5 °C.

Going from `CSC(C)C` to `Cc1csc(C)c1C`, the boiling point rises from 84.8 °C to 162 °C.

First: CCCCCCCCOC(=O)CCCCCCC
Second: CCCCCC=O
The boiling point of the first is higher: 307 °C for the first, 131 °C for the second.

Going from `CC#CCCCCC` to `CCCCc1ccc(O)cc1`, the boiling point rises from 138 °C to 248 °C.

First: C=C1CCC1=C
Second: CC1=CCC(C(=O)O)C1(C)C (stereo not given)
The boiling point of the first is lower: 64 °C for the first, 242 °C for the second.

Going from `CC=Cc1ccc(O)c(OC)c1` to `CC#CC(=O)O`, the boiling point falls from 266 °C to 203 °C.

Going from `O=C=C=C=O` to `O=C(Br)CBr`, the boiling point rises from 6.8 °C to 148 °C.

First: c1ccc2sccc2c1
Second: COc1ccccc1O
The log10 Koc (L/kg) of the first is higher: 3.48 for the first, 1.56 for the second.

`C1CCC2CCCCC2C1` (stereo not given) and `OC(c1ccc(Cl)cc1)(c1ccc(Cl)cc1)C(Cl)(Cl)Cl` are within 0.2 log units of each other in log10 Koc (L/kg): 3.67 for the first, 3.7 for the second.

Work on `c1ccc2sccc2c1` yielded a log10 biodegradation half-life (days) of 1.4.

Going from `COc1ccccc1O` to `Clc1cccc(-c2cc(Cl)c(Cl)c(Cl)c2Cl)c1Cl`, the log10 Henry constant (atm·m³/mol) rises from -5.92 to -4.54.

Work on `CCCCCC=O` yielded a log10 Henry constant (atm·m³/mol) of -3.67.

same assay, conditions: fish

Compared with `C1CCC2CCCCC2C1` (stereo not given), `CCCCC(CC)CN1C(=O)C2C(C1=O)C1(C(C)C)C=CC2(C)CC1` (stereo not given) is lower in log10 BCF: 3.25 for the first, 2.97 for the second.

For `OC(c1ccc(Cl)cc1)(c1ccc(Cl)cc1)C(Cl)(Cl)Cl`, the log10 BCF was 3.79.

First: OC(c1ccc(Cl)cc1)(c1ccc(Cl)cc1)C(Cl)(Cl)Cl
Second: CCCCC(CC)CN1C(=O)C2C(C1=O)C1(C(C)C)C=CC2(C)CC1 (stereo not given)
The log10 biotransformation half-life (days) of the first is higher: 1.99 for the first, 0.31 for the second.
